# Calls of active or inactive are those of the source. The rule behind the calls is not given here.
# How the values were obtained:
# [1] = Toxicity in BALB/C mouse xenografted with human MCF7 cells assessed as change in heart morphology at 25 mg/kg,ip administrated every other day for 29 days; type: organism-based; conditions: in vivo, 696 h, time 29 day
# MCF7 [2] = assay: Potentiation of etoposide induced antiproliferative activity against human MCF7 cells assessed as upregulation of CCL5 gene expression at 2.5 uM in presence of etoposide by RT-qPCR analysis; type: functional, cell-based
# MCF7 [3] = assay: Antiproliferative activity against tamoxifen-resistant human MCF7 cells assessed as reduction in cell growth at 5 uM incubated for 7 days by celltiter 96 aqueous one solution cell proliferation assay; type: functional, cell-based; conditions: time 7.0 day
# 4T1 [4] = assay: Antitumor activity against mouse 4T1 cells implanted in BALB/C mouse assessed as downregulation of N-Myc gene expression at 50 mg/kg,ip administrated daily for 14 days by RT-qPCR analysis; type: functional, organism-based; conditions: time 14.0 day
# MCF7 [5] = assay: Potentiation of etoposide induced antiproliferative activity against human MCF7 cells assessed as upregulation of DDX58 gene expression at 2.5 uM in presence of etoposide by RT-qPCR analysis; type: functional, cell-based
# 4T1 [6] = assay: Antitumor activity against mouse 4T1 cells implanted in BALB/C mouse assessed as downregulation of PGR gene expression at 50 mg/kg,ip administrated daily for 14 days by RT-qPCR analysis; type: functional, organism-based; conditions: time 14.0 day
# 4T1 [7] = assay: Antitumor activity against mouse 4T1 cells implanted in BALB/C mouse assessed as increase in infiltration of CD8 positive T cells at 25 mg/kg,ip administrated daily for 14 days by immunohistochemical staining based analysis; type: functional, organism-based; conditions: time 14.0 day
# 4T1 [8] = assay: Antitumor activity against mouse 4T1 cells implanted in BALB/C mouse assessed as upregulation of DDX58 gene expression at 25 mg/kg,ip administrated daily for 14 days by RT-qPCR analysis; type: functional, organism-based; conditions: time 14.0 day
# 4T1 [9] = assay: Potentiation of etoposide induced antitumor activity against mouse 4T1 cells implanted in BALB/C mouse assessed as upregulation of DDX58 gene expression at 25 mg/kg,ip administrated daily for 12 days in presence of 8 mg/kg etoposide administration by RT-qPCR analysis; type: functional, organism-based; conditions: time 12.0 day
# 4T1 [10] = assay: Antitumor activity against mouse 4T1 cells implanted in BALB/C mouse assessed as upregulation of CD8A expression at 25 mg/kg,ip administrated daily for 14 days by immunohistochemical staining based analysis; type: functional, organism-based; conditions: time 14.0 day
# MCF7 [11] = assay: Antitumor activity against human MCF7 cells xenografted in BALB/C mouse assessed as upregulation of ISG15 gene expression at 50 mg/kg,ip administrated every other day for 29 days by RT-qPCR analysis; type: functional, organism-based; conditions: time 29.0 day
# MDA-MB-231 [12] = assay: Antitumor activity against human MDA-MB-231 cells xenografted in BALB/C mouse assessed as inhibition of tumor growth at 50 mg/kg,ip administrated daily for 11 days; type: functional, organism-based; conditions: time 11.0 day
# MCF7 [13] = assay: Potentiation of etoposide induced antiproliferative activity against human MCF7 cells assessed as inhibition of cell growth at 2.5 uM incubated for 7 days in presence of etoposide by celltiter 96 aqueous one solution cell proliferation assay; type: functional, cell-based; conditions: time 7.0 day
# [14] = Toxicity in BALB/C mouse xenografted with human MDA-MB-231 cells assessed as change in body weight at 25 mg/kg,ip administrated daily for 11 days; type: organism-based; conditions: in vivo, 264 h, time 11 day
# MCF7 [15] = assay: Synergistic antiproliferative activity against human MCF7 cells assessed as downregulation of FOXC1 gene expression at 2.5 uM incubated for 6 hrs in presence of tamoxifen by RT-qPCR analysis; type: functional, cell-based
# MCF7 [16] = assay: Antitumor activity against human MCF7 cells xenografted in BALB/C mouse assessed as downregulation of FOXC1 gene expression at 25 mg/kg,ip administrated every other day for 29 days by RT-qPCR analysis; type: functional, organism-based; conditions: time 29.0 day
# HCC1806 = assay: Antiproliferative activity against human HCC1806 cells assessed as reduction in cell growth incubated for 7 days by celltiter 96 aqueous one solution cell proliferation assay; conditions: HCC1806, 168 h
# MCF7 [17] = assay: Synergistic antitumor activity against human MCF7 cells xenografted in BALB/C mouse assessed as downregulation of C-Myc gene expression at 25 mg/kg,ip administrated every other day for 15 days in presence of 5 mg/kg tamoxifen oral administration by RT-qPCR analysis; type: functional, organism-based; conditions: time 15.0 day
# MCF7 [18] = assay: Synergistic antiproliferative activity against human MCF7 cells assessed as downregulation of FOXC1 gene expression at 2.5 uM incubated for 6 hrs in presence of fulvestrant by RT-qPCR analysis; type: functional, cell-based
# MCF7 [19] = assay: Antitumor activity against human MCF7 cells xenografted in BALB/C mouse assessed as reduction of tumor weight at 25 mg/kg,ip administrated every other day for 29 days; type: functional, organism-based; conditions: time 29.0 day
# MDA-MB-231 [20] = assay: Antitumor activity against human MDA-MB-231 cells xenografted in BALB/C mouse assessed as reduction of tumor size at 50 mg/kg,ip administrated daily for 11 days; type: functional, organism-based; conditions: time 11.0 day
# [21] = Toxicity in BALB/C mouse xenografted with human MDA-MB-231 cells assessed as change in spleen morphology at 50 mg/kg,ip administrated daily for 11 days; type: organism-based; conditions: in vivo, 264 h, time 11 day
# MCF7 [22] = assay: Antiproliferative activity against human MCF7 cells assessed as reduction in cell growth incubated for 7 days by celltiter 96 aqueous one solution cell proliferation assay; conditions: MCF7, 168 h
# [23] = Toxicity in BALB/C mouse xenografted with human MDA-MB-231 cells assessed as change in spleen morphology at 25 mg/kg,ip administrated daily for 11 days; type: organism-based; conditions: in vivo, 264 h, time 11 day
# 4T1 [24] = assay: Potentiation of etoposide induced antitumor activity against mouse 4T1 cells implanted in BALB/C mouse assessed as upregulation of IFIT1 gene expression at 25 mg/kg,ip administrated daily for 12 days in presence of 8 mg/kg etoposide administration by RT-qPCR analysis; type: functional, organism-based; conditions: time 12.0 day
# [25] = Toxicity in BALB/C mouse implanted with mouse 4T1 cells assessed as change in kidney morphology at 25 mg/kg,ip administrated daily for 14 days; type: organism-based; conditions: in vivo, 336 h, time 14 day
# [26] = Toxicity in BALB/C mouse xenografted with human MCF7 cells assessed as change in kidney morphology at 50 mg/kg,ip administrated every other day for 29 days; type: organism-based; conditions: in vivo, 696 h, time 29 day
# MCF7 [27] = assay: Antitumor activity against human MCF7 cells xenografted in BALB/C mouse assessed as downregulation of N-Myc gene expression at 25 mg/kg,ip administrated every other day for 29 days by RT-qPCR analysis; type: functional, organism-based; conditions: time 29.0 day
# 4T1 [28] = assay: Potentiation of etoposide induced antitumor activity against mouse 4T1 cells implanted in BALB/C mouse assessed as reduction in tumor weight at 25 mg/kg,ip administrated daily for 12 days in presence of 8 mg/kg etoposide administration; type: functional, organism-based; conditions: time 12.0 day
# MCF7 [29] = assay: Antitumor activity against human MCF7 cells xenografted in BALB/C mouse assessed as upregulation of CCL5 gene expression at 50 mg/kg,ip administrated every other day for 29 days by RT-qPCR analysis; type: functional, organism-based; conditions: time 29.0 day
# 4T1 [30] = assay: Antitumor activity against mouse 4T1 cells implanted in BALB/C mouse assessed as downregulation of FOXC1 gene expression at 50 mg/kg,ip administrated daily for 14 days by RT-qPCR analysis; type: functional, organism-based; conditions: time 14.0 day
# 4T1 [31] = assay: Antitumor activity against mouse 4T1 cells implanted in BALB/C mouse assessed as upregulation of CCL5 gene expression at 50 mg/kg,ip administrated daily for 14 days by RT-qPCR analysis; type: functional, organism-based; conditions: time 14.0 day
smiles,measurement,setting,value
Cc1ccc(-c2nc(N3CCN(CCN(C)C)CC3)ncc2-c2ccoc2)cc1.Cl.Cl,Activity,[1],Non-Toxic
same,Activity,MCF7 [2],Active
same,Activity,MCF7 [3],Active
same,Activity,4T1 [4],Active
same,Activity,MCF7 [5],Active
same,Activity,4T1 [6],Active
same,Activity,4T1 [7],Active
same,Activity,4T1 [8],Active
same,Activity,4T1 [9],Active
same,Activity,4T1 [10],Active
same,Activity,MCF7 [11],Active
same,Activity,MDA-MB-231 [12],Active
same,Activity,MCF7 [13],Active
same,Activity,[14],Non-Toxic
same,Activity,MCF7 [15],Active
same,Activity,MCF7 [16],Active
same,EC50,HCC1806,2830 nM
same,Activity,MCF7 [17],Active
same,Activity,MCF7 [18],Active
same,Activity,MCF7 [19],Active
same,Activity,MDA-MB-231 [20],Active
same,Activity,[21],Non-Toxic
same,EC50,MCF7 [22],1800 nM
same,Activity,[23],Non-Toxic
same,Activity,4T1 [24],Active
same,Activity,[25],Non-Toxic
same,Activity,[26],Non-Toxic
same,Activity,MCF7 [27],Active
same,Activity,4T1 [28],Active
same,Activity,MCF7 [29],Active
same,Activity,4T1 [30],Active
same,Activity,4T1 [31],Active

# Reference: ChEMBL document CHEMBL5512665, “A CARM1 Inhibitor Potently Suppresses Breast Cancer Both In Vitro and In Vivo” (J Med Chem, 2024)
